Results reported in US20240207258A1, “HETEROCYCLIC PDK1 INHIBITORS FOR USE TO TREAT CANCER” (Viracta Therapeutics, Inc., priority 2015, published 2024).
pEC50: −log10 of the molar value.

Key:
Z-138 = assay: MTS cell proliferation assay, Z-138; format: cell-based; conditions: Homo sapiens; Z-138, 72 hr
Protocol: (§1) Cell proliferation was measured using the CellTiter 96 Aqueous Non-Radioactive Cell Proliferation Assay (Promega). The CellTiter 96® AQueous Assay is composed of solutions of a tetrazolium compound [3-(4,5-dimethylthiazol-2-yl)-5-(3-carboxymethoxyphenyl)-2-(4-sulfophenyl)-2H-tetrazolium, inner salt; MTS] and an electron coupling reagent (phenazine methosulfate) PMS. MTS is bioreduced by cells into a formazan product that is soluble in tissue culture medium. The absorbance of the formazan product at 490 nm can be measured directly from assay plates without additional processing. The quantity of formazan product as measured by the amount of 490 nm absorbance is directly proportional to the number of living cells in culture. Cells were seeded into 96-well or 384-well clear plates in a volume of 200 μL (96-well) or 50 μL (384-well) at optimized densities ranging from 1,000 to 40,000 cells per well for 96-well plates or 1,200 to 25,000 cells per well for 384-well plates depending on cell-line. After 4-6 hr recovery, serially diluted compounds in DMSO were added to the cells using (0.1% v/v final DMSO concentration). Cells were then grown at 37° C. in a humidified incubator with 5% CO2 for 72 hr. A 20:1 [3-(4,5-dimethylthiazol-2-yl)-5-(3-carboxymethoxyphenyl)-2-(4-sulfophenyl)-2H-tetrazolium](MTS):phenazine methosulfate (PMS) solution in DPBS was made immediately before use, added to each well, and cells were incubated for 1.5 hr at 37° C. The absorbance at 490 nm was then measured using a platereader. Absorbance values were normalized as percent of control (cells incubated in the presence of 0.1% v/v DMSO). Sigmoidal dose-response curves were plotted using log(inhibitor) vs. response—Variable slope (four parameters) model with a top value constrained to 100% (GraphPad Prism version 6.00 for Windows, GraphPad Software, La Jolla California USA). […] Curves for compounds that reached a plateau were matched exactly to the measurement points. […]

[1] = target: T1, Full-length phosphorylated PDK1 (Homo sapiens, UniProt O15530); assay: FRET-based PIF-tide binding assay; conditions: 10 nM compound where stated, FIG. 13D
T1 sequence (O15530 1-556): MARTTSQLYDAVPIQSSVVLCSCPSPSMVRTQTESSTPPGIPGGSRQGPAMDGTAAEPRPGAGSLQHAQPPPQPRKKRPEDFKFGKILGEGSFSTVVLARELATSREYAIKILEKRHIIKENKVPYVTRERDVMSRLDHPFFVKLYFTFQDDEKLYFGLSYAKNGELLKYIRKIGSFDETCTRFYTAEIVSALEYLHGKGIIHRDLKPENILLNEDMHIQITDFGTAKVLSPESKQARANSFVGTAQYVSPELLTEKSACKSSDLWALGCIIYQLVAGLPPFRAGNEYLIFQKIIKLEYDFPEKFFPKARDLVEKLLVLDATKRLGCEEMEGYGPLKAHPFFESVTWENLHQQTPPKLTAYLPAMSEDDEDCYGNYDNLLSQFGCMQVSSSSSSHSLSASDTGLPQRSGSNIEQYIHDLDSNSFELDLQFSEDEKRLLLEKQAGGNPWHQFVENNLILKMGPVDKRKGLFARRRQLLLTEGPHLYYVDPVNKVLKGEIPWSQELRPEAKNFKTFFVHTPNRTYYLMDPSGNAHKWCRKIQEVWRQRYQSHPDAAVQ

Full-length PDK1 = target: T2, Full-length PDK1 (Homo sapiens, UniProt O15530); assay: PDK1 kinase activity assay (FRET); format: biochemical; conditions: for inhibition of PDK1 kinase activity: phosphorylated and un-phosphorylated PDK1, FIGS. 2A and 2B
T2 construct: Full-length PDK1 protein (SignalChem) was dephosphorylated; purchased SignalChem
T2 sequence (O15530 1-556): T1 sequence (O15530 1-556)
Protocol: Full-length PDK1 protein (SignalChem) was dephosphorylated using GST-k-phosphatase (produced in house), which was subsequently removed using glutathione-agarose beads (Gold Biotechnology). […] Tb-pCrosstide antibody (ThermoFisher) was then added to a final concentration of 2 nM and the reaction was incubated for an additional 30 min. Fluorescence resonance energy transfer (FRET) was measured using a Tecan Infinite F500 plate reader with λex=340 nm, λem1=485 nm, λem2=520 nm.

SU-DHL-4 = assay: MTS cell proliferation assay, SU-DHL-4; format: cell-based; conditions: Homo sapiens; SU-DHL-4, 72 hr
Protocol: as §1

WSU-DLCL2 = assay: MTS cell proliferation assay, WSU-DLCL2; format: cell-based; conditions: Homo sapiens, WSUDLCL2; WSU-DLCL2, 72 hr
Protocol: as §1

CMK = assay: MTS cell proliferation assay, CMK; format: cell-based; conditions: Homo sapiens, 72 hr
Protocol: as §1

SU-DHL-6 = assay: MTS cell proliferation assay, SU-DHL-6; format: cell-based; conditions: Homo sapiens; SU-DHL-6, 72 hr
Protocol: as §1

[2] = Oral pharmacokinetics in mice; format: in vivo; conditions: for Tmax / bioavailability: mouse, in vivo, oral; for bioavailability: read-out: oral bioavailability % F

SMILES	pEC50 (Z-138)	FRET between PDK1 and PIF-tide [1]	inhibition of PDK1 kinase activity (Full-length PDK1)	pEC50 (SU-DHL-4)	pEC50 (WSU-DLCL2)	pEC50 (CMK)	pEC50 (SU-DHL-6)	half-life [2]	Tmax [2]	bioavailability [2]	biochemical potency compared to GSK2334470 (Full-length PDK1)
C[C@H](NC(=O)c1nc(C#N)cnc1NCc1ccc(-c2cnc3[nH]nc(N)c3n2)cc1)c1ccc(F)c(F)c1 [Compound 1, 3-[4-(3-Amino-1H-pyrazolo[3,4-b]pyrazin-5-yl)-benzylamino]-6-cyano-pyrazine-2-carboxylic acid [1-(3,4-difluoro-phenyl)-ethyl]-amide]	6.14	near complete inhibition	potent inhibitors of both phosphorylated and un-phosphorylated PDK1	6.50	6.27	6.65	6.24	long half-life	4 to 8 h	> 40%	–
CNc1n[nH]c2ncc(-c3ccc(CNc4ncc(C#N)nc4C(=O)N[C@@H](C)c4ccc(F)c(F)c4)cc3)cc12 [Compound 2, 6-Cyano-3-[4-(3-methylamino-1H-pyrazolo[3,4-b]pyridin-5-yl)-benzylamino]-pyrazine-2-carboxylic acid [1-(3,4-difluoro-phenyl)-ethyl]-amide]	6.16	near complete inhibition	potent inhibitors of both phosphorylated and un-phosphorylated PDK1	6.73	6.45	6.74	6.32	long half-life	4 to 8 h	> 40%	comparable biochemical potency
